Test results taken from PubChem BioAssay (NCI).
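Exposure lasted 48 hours, with cells grown in 96-well plates and compounds tested at five concentrations. TGI is the concentration that stops growth completely.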

Key:
Test in all cases: DTP human tumour cell line panel, 48 h
[1] = system: KM20L2 colon
[2] = system: NCI-H23 lung
[3] = system: CCRF-CEM leukemia
[4] = system: HCC-2998 colon
[5] = system: SNB-75 CNS
[6] = system: ACHN renal
[7] = system: RPMI-8226 leukemia
[8] = system: HT29 colon
[9] = system: LXFL 529 NSCLC
[10] = system: M19-MEL melanoma
[11] = system: OVCAR-5 ovarian
[12] = system: A498 renal
[13] = system: MDA-MB-231 breast
[14] = system: DMS 114 small cell lung
[15] = system: MDA-MB-435
[16] = system: TK-10 renal
[17] = system: HS 578T breast
[18] = system: SNB-78 CNS
[19] = system: IGROV1 ovarian
[20] = system: RXF 393 renal
[21] = system: HOP-62 NSCLC
[22] = system: SK-MEL-2 melanoma
[23] = system: MOLT-4 leukemia
[24] = system: DLD-1 colon
[25] = system: SN12C renal
[26] = system: SF-539 CNS
[27] = system: XF 498 CNS
[28] = system: NCI-H226 lung
[29] = system: UO-31 renal
[30] = system: HOP-18 NSCLC
[31] = system: OVCAR-4 ovarian
[32] = system: SR leukemia
[33] = system: OVCAR-3 ovarian
[34] = system: HCT-116 colon
[35] = system: NCI-H522 lung
[36] = system: SNB-19 CNS
[37] = system: MALME-3M melanoma
[38] = system: UACC-62 melanoma
[39] = system: RXF-631 renal
[40] = system: EKVX NSCLC
[41] = system: UACC-257 melanoma
[42] = system: 786-0 renal
[43] = system: HCT-15 colon
[44] = system: DU-145 prostate
[45] = system: NCI/ADR-RES ovarian
[46] = system: U251 CNS
[47] = system: MDA-N
[48] = system: SK-OV-3 ovarian
[49] = system: SW-620 colon
[50] = system: T-47D breast
[51] = system: DMS 273 small cell lung
[52] = system: HL-60(TB) leukemia
[53] = system: MCF7 breast
[54] = system: OVCAR-8 ovarian
[55] = system: SK-MEL-28 melanoma
[56] = system: HOP-92 NSCLC
[57] = system: KM12 colon
[58] = system: A549 NSCLC
[59] = system: PC-3 prostate
[60] = system: COLO 205 colon
[61] = system: SF-295 CNS
[62] = system: SF-268 CNS
[63] = system: M14 melanoma
[64] = system: LOX IMVI melanoma
[65] = system: CAKI-1 renal
[66] = system: BT-549 breast
[67] = system: NCI-H460 lung
[68] = system: SK-MEL-5 melanoma
[69] = system: K-562 leukemia

## CC(=O)OC1CC[C@@]2(C)C(CC[C@]3(C)C2CC=C2[C@@H]4C(C)[C@H](C)CCC4(C)CCC23C)[C@@]1(C)C(=O)O (stereo partly specified)
[1]
  TGI: 29.4 µM
[2]
  TGI: 51.6 µM
[3]
  TGI: 66.3 µM
[4]
  TGI: 38.7 µM
[5]
  TGI: 35.8 µM
[6]
  TGI: 36.8 µM
[7]
  TGI: 64.8 µM
[8]
  TGI: 47.4 µM
[9]
  TGI: 39.4 µM
[10]
  TGI: 51 µM
[11]
  TGI: 33.3 µM
[12]
  TGI: 37.2 µM
[13]
  TGI: 49.6 µM
[14]
  TGI: 39.6 µM
[15]
  TGI: 40.6 µM
[16]
  TGI: 30.7 µM
[17]
  TGI: 64.9 µM
[18]
  TGI: 65.6 µM
[19]
  TGI: 46.9 µM
[20]
  TGI: 49.4 µM
[21]
  TGI: 43.1 µM
[22]
  TGI: 50.2 µM
[23]
  TGI: 69.6 µM
[24]
  TGI: 46.4 µM
[25]
  TGI: 53.2 µM
[26]
  TGI: 51.8 µM
[27]
  TGI: 36.1 µM
[28]
  TGI: 53.4 µM
[29]
  TGI: 39.9 µM
[30]
  TGI: 28.8 µM
[31]
  TGI: 66.7 µM
[32]
  TGI: 70.6 µM
[33]
  TGI: 40.4 µM
[34]
  TGI: 30.8 µM
[35]
  TGI: 45.4 µM
[36]
  TGI: 53.1 µM
[37]
  TGI: 49 µM
[38]
  TGI: 35.3 µM
[39]
  TGI: 68.6 µM
[40]
  TGI: 43.3 µM
[41]
  TGI: 40.9 µM
[42]
  TGI: 52.9 µM
[43]
  TGI: 43.2 µM
[44]
  TGI: 33.2 µM
[45]
  TGI: 45 µM
[46]
  TGI: 58.2 µM
[47]
  TGI: 42.3 µM
[48]
  TGI: 40.4 µM
[49]
  TGI: 55.5 µM
[50]
  TGI: 43.3 µM
[51]
  TGI: 46.8 µM
[52]
  TGI: 63.5 µM
[53]
  TGI: 25.8 µM
[54]
  TGI: 70 µM
[55]
  TGI: 52 µM
[56]
  TGI: 49.9 µM
[57]
  TGI: 53.9 µM
[58]
  TGI: 45.6 µM
[59]
  TGI: 31.8 µM
[60]
  TGI: 45 µM
[61]
  TGI: 35.5 µM
[62]
  TGI: 60.5 µM
[63]
  TGI: 52.4 µM
[64]
  TGI: 51.7 µM
[65]
  TGI: 35.1 µM
[66]
  TGI: 49.8 µM
[67]
  TGI: 71.6 µM
[68]
  TGI: 35.5 µM
[69]
  TGI: 86.9 µM

## O=C1c2ccccc2C(=O)c2sc(Nc3ccccc3Cl)nc21
[1]
  TGI: 39.5 µM
[2]
  TGI: 17.5 µM
[3]
  TGI: 9.56 µM
[4]
  TGI: 34.9 µM
[5]
  TGI: 27.1 µM
[6]
  TGI: 14.9 µM
[7]
  TGI: 10.6 µM
[8]
  TGI: 45.4 µM
[9]
  TGI: 5.56 µM
[10]
  TGI: 3.17 µM
[11]
  TGI: 41 µM
[12]
  TGI: 32.2 µM
[13]
  TGI: 13.7 µM
[16]
  TGI: 34.2 µM
[17]
  TGI: 80.4 µM
[18]
  TGI: 40.8 µM
[19]
  TGI: 28.3 µM
[20]
  TGI: 30 µM
[21]
  TGI: 33.3 µM
[22]
  TGI: 34.5 µM
[23]
  TGI: 11.1 µM
[24]
  TGI: 25.1 µM
[25]
  TGI: 21.1 µM
[26]
  TGI: 31.4 µM
[27]
  TGI: 30.2 µM
[28]
  TGI: 28.6 µM
[29]
  TGI: 24.4 µM
[30]
  TGI: 27.2 µM
[31]
  TGI: 22.8 µM
[32]
  TGI: 12.1 µM
[33]
  TGI: 25.8 µM
[34]
  TGI: 22.9 µM
[35]
  TGI: 9.61 µM
[36]
  TGI: 28.1 µM
[37]
  TGI: 28 µM
[38]
  TGI: 17.3 µM
[39]
  TGI: 40.6 µM
[40]
  TGI: 22.2 µM
[41]
  TGI: 21.4 µM
[42]
  TGI: 27.9 µM
[43]
  TGI: 29.6 µM
[44]
  TGI: 31.4 µM
[46]
  TGI: 19.5 µM
[47]
  TGI: 6.13 µM
[48]
  TGI: 33.7 µM
[49]
  TGI: 8.97 µM
[50]
  TGI: 34.5 µM
[51]
  TGI: 31.9 µM
[52]
  TGI: 4.18 µM
[53]
  TGI: 40.6 µM
[54]
  TGI: 20.3 µM
[55]
  TGI: 30.2 µM
[56]
  TGI: 27.9 µM
[57]
  TGI: 29.6 µM
[58]
  TGI: 46.2 µM
[59]
  TGI: 25.9 µM
[60]
  TGI: 29 µM
[61]
  TGI: 30.1 µM
[62]
  TGI: 23.7 µM
[63]
  TGI: 13.1 µM
[64]
  TGI: 6.63 µM
[65]
  TGI: 18.4 µM
[66]
  TGI: 29.5 µM
[67]
  TGI: 29.6 µM
[68]
  TGI: 16.4 µM
[69]
  TGI: 6.8 µM

## C[C@]12CCNC(=O)C=C1CC[C@@H]1C2CC[C@@]2(C)C1CC[C@@H]2OC(=O)COc1ccc(N(CCCl)CCCl)cc1 (stereo partly specified)
[1]
  TGI: 30.3 µM
[2]
  TGI: 20.2 µM
[3]
  TGI: 9.45 µM
[4]
  TGI: 15 µM
[5]
  TGI: 47.2 µM
[6]
  TGI: 11.2 µM
[7]
  TGI: 47.6 µM
[8]
  TGI: 27.5 µM
[9]
  TGI: 21.8 µM
[10]
  TGI: 18.6 µM
[11]
  TGI: 29.5 µM
[12]
  TGI: 36.1 µM
[13]
  TGI: 34.8 µM
[15]
  TGI: 74.5 µM
[16]
  TGI: 35.6 µM
[17]
  TGI: 98.1 µM
[18]
  TGI: > 70 µM
[19]
  TGI: 33.4 µM
[20]
  TGI: 18 µM
[21]
  TGI: 22.2 µM
[22]
  TGI: 44.4 µM
[23]
  TGI: > 22.2 µM
[24]
  TGI: 17.8 µM
[25]
  TGI: 21.8 µM
[26]
  TGI: 9.01 µM
[27]
  TGI: 4.89 µM
[28]
  TGI: 28.5 µM
[29]
  TGI: 18.9 µM
[30]
  TGI: 47.7 µM
[31]
  TGI: 20.5 µM
[32]
  TGI: 15.7 µM
[33]
  TGI: 8.25 µM
[34]
  TGI: 13.9 µM
[35]
  TGI: 3.08 µM
[36]
  TGI: 50.7 µM
[37]
  TGI: 24.6 µM
[38]
  TGI: 6.41 µM
[39]
  TGI: > 88.8 µM
[40]
  TGI: 40.3 µM
[41]
  TGI: 37.2 µM
[42]
  TGI: 3.19 µM
[43]
  TGI: 13.1 µM
[44]
  TGI: 22 µM
[46]
  TGI: 11.1 µM
[47]
  TGI: 29 µM
[48]
  TGI: 21.7 µM
[49]
  TGI: 16.5 µM
[50]
  TGI: 9.03 µM
[51]
  TGI: 12.2 µM
[52]
  TGI: 7.4 µM
[53]
  TGI: 14.8 µM
[54]
  TGI: 17.8 µM
[55]
  TGI: 36.3 µM
[56]
  TGI: 23.3 µM
[57]
  TGI: 24.4 µM
[58]
  TGI: 23 µM
[60]
  TGI: 23.9 µM
[61]
  TGI: 30.6 µM
[62]
  TGI: 23.8 µM
[63]
  TGI: 20.3 µM
[64]
  TGI: 22.8 µM
[65]
  TGI: 23 µM
[66]
  TGI: 60.2 µM
[67]
  TGI: 7.26 µM
[68]
  TGI: 24.6 µM
[69]
  TGI: 46.3 µM
